Test [1] has as its target T1, NS5A-6HIS (full length NS5A, genotype 1b, Con1) (Hepatitis C virus (isolate Con1), UniProt Q9WMX2).
T1 construct: mature NS5A cut from HCV genome polyprotein; full length residues 1-447 with N-terminal amphipathic helix, C-terminal 6His tag kept; Sf9 baculovirus, C12E8 solubilised, phosphorylated
T1 sequence (Q9WMX2 1973-2419): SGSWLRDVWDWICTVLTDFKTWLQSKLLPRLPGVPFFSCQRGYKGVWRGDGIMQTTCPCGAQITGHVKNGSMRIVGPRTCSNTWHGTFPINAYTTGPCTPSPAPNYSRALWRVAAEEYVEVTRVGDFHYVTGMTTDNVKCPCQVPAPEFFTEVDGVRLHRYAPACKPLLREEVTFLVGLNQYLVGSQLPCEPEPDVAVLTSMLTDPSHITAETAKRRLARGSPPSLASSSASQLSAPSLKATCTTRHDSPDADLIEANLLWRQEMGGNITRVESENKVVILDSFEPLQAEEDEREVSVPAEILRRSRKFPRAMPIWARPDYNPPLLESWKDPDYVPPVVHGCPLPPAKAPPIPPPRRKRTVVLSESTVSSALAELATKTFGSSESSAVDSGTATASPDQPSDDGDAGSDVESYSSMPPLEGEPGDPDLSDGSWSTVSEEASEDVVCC
Kind of test: competition of 3H-LDV binding, Ni-NTA capture.

Test [2] addresses T1, NS5A-6HIS (full length NS5A, genotype 1b, Con1). Kind of test: competition of 3H-LDV binding, Ni-NTA capture. The protocol: competition of 3H-LDV binding, Ni-NTA capture on NS5A-6HIS (full length NS5A, genotype 1b, Con1) | Ki was calculated using the Cheng-Prusoff equation
This is another data set of the same source.

Test [3] shares this target. The experiment in a line: radioligand saturation binding, Ni-NTA capture.
The target in test [4] is NS5A-Y93H-6HIS (Y93H mutant of full length NS5A, genotype 1b, Con1, with C-terminal His tag) (Hepatitis C virus genotype 1b, Con1). Kind of test: AUC; sedimentation velocity (42,000 rpm, 3.3 and 6.6 uM) and equilibrium, 20 C, protein in C12E8 micelles, 25 mM Tris pH 7.5, 150 mM NaCl, 0.5 mM TCEP, 0.02% C12E8, 21.1% D2O (density matched to the detergent); self-association.

Read-outs that look alike come from different tables or passages of the source.

4 compounds from paper PMC4391872, “Direct Binding of Ledipasvir to HCV NS5A: Mechanism of Resistance to an HCV Antiviral Agent” (PLoS ONE, 2015) can be followed below.

Broadly, the Ki is a measure of affinity in units of concentration, obtained from inhibition or displacement. A high value points to weaker binding. As a reminder, the Kd is a measure of binding affinity in units of concentration.

Consider `O=C1N[C@H]2[C@H](CS[C@H]2CCCCC(=O)N2CCC[C@H]2C(=O)Nc2ccc(/C=C/c3ccc(NC(=O)[C@@H]4CCCN4C(=O)Cc4ccccc4)cc3)cc2)N1` [BMS-Biotin], for which the IC50 in test [1] (read-out: no competition up to 100 μM) was greater than 100000 nM.
With `COC(=O)N[C@H](C(=O)N1CCC[C@H]1c1nc(-c2ccc(-c3ccc(-c4c[nH]c([C@@H]5CCCN5C(=O)[C@@H](NC(=O)OC)C(C)C)n4)cc3)cc2)c[nH]1)C(C)C` [daclatasvir], the Ki in test [2] is 499 ± 68.3 nM. Moreover, in test [1] (read-out: IC50), the IC50 is 753 nM.
Take `COC(=O)N[C@H](C(=O)N1CC2(CC2)C[C@H]1c1ncc(-c2ccc3c(c2)C(F)(F)c2cc(-c4ccc5nc([C@@H]6[C@H]7CC[C@H](C7)N6C(=O)[C@@H](NC(=O)OC)C(C)C)[nH]c5c4)ccc2-3)[nH]1)C(C)C` [ledipasvir]: the Ki in test [2] turned out to be 98.7 ± 10.2 nM. In addition, the IC50 in test [1] (read-out: IC50) amounted to 149 nM. In test [3], this compound yielded a Kd of 58.9 ± 6.6 nM.
For “NS5A-Y93H-6HIS (Y93H mutant of full length NS5A, genotype 1b, Con1, with C-terminal His tag) (natural protein)”, in test [4], the percent dimers came out at 3% and the percent higher order oligomers was determined as 7%.
